Data from BindingDB's records for doi:10.1016/j.chembiol.2011.01.012 (University of Luxembourg, 2011).

What was measured:
[1] = biological target: Non-receptor tyrosine-protein kinase TYK2 (Homo sapiens, UniProt P29597); assay: Enzyme Assay; details: pH 7.5; 30 °C
[2] = biological target: Tyrosine-protein kinase JAK1 (Homo sapiens, UniProt P23458); assay: Enzyme Assay; details: pH 7.5; 30 °C
Sequence of Tyrosine-protein kinase JAK1 (P23458 whole entry): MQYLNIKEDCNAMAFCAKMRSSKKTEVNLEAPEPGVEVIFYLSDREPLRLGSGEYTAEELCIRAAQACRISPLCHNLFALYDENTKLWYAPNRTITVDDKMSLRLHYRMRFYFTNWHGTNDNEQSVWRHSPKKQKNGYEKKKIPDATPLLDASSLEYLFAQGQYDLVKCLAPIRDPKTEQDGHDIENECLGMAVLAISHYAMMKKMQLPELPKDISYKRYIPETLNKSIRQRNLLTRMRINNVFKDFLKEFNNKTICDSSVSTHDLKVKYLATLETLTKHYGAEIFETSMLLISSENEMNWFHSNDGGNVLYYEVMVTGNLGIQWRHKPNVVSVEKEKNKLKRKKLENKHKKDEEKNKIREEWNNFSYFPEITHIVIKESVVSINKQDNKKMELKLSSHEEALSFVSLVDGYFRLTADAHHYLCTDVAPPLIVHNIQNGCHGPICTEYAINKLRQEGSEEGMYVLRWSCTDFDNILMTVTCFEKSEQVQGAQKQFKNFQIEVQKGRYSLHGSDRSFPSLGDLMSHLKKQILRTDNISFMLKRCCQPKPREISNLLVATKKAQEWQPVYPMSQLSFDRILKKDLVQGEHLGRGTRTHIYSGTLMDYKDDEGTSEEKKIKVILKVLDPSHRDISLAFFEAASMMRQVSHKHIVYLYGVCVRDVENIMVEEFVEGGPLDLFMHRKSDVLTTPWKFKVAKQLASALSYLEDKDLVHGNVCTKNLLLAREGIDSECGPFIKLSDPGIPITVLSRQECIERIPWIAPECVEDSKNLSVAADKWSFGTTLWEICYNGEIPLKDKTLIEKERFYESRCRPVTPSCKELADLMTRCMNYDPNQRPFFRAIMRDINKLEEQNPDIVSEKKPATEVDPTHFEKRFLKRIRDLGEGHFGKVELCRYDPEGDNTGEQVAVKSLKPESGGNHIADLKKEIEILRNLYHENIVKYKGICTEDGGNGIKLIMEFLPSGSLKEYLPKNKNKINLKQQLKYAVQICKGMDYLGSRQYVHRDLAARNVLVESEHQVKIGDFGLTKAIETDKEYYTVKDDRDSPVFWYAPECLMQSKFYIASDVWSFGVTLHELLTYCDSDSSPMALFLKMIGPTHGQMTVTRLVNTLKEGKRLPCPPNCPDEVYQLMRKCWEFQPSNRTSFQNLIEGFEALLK

Sequence of Non-receptor tyrosine-protein kinase TYK2 (P29597 whole entry): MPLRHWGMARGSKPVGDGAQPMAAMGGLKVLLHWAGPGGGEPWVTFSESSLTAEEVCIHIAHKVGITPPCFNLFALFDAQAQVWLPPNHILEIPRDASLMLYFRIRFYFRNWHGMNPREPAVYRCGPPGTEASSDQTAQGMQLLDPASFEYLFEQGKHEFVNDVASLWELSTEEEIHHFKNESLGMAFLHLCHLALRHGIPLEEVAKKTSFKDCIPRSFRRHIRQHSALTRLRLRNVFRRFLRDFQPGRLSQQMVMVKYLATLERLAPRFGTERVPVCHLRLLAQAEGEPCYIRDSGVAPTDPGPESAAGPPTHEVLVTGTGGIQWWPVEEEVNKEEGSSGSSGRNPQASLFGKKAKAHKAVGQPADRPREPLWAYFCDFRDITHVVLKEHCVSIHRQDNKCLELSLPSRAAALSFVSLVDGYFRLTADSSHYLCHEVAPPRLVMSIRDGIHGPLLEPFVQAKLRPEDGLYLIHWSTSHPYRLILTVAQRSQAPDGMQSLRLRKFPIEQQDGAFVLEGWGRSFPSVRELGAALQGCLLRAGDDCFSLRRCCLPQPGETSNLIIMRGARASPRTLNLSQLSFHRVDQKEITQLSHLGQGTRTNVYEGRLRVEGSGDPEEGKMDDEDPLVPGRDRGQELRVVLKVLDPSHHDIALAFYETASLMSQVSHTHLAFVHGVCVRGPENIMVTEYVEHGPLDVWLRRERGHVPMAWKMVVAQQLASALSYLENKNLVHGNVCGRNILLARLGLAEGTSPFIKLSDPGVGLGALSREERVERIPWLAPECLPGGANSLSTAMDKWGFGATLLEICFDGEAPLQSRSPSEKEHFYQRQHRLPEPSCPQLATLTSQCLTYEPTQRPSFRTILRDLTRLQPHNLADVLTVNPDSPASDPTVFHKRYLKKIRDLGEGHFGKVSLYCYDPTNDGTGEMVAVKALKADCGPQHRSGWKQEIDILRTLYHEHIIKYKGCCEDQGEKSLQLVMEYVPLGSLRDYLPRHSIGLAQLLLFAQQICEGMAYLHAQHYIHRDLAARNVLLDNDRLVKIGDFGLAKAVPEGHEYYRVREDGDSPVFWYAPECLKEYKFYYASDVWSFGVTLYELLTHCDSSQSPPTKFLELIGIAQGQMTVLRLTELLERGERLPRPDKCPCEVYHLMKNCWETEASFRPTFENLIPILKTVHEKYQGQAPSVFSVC

- IC50 [1]: 8.05 µM
- IC50 [2]: 1.02 µM
Compound: CC(C)(O)C(=O)N1CCN(c2ccc(C(F)(F)F)c(C3=C(c4c[nH]c5ccccc45)C(=O)NC3=O)c2)CC1 [NIBR3049]
